In US10968193B2, “Antidiabetic bicyclic compounds” (Merck Sharp & Dohme Corp., priority 2014, dated 2021):

Biological target: T1, human GPR40 (Homo sapiens, UniProt O14842)
T1 construct: expressed in transfected cells; host or cells: HEK cells stably expressing the aequorin reporter
Experiment: Inositol Phosphate Turnover (IP1) Assay 2
Assay type: cell-based
Settings: HEK cells stably expressing human GPR40; 15,000 cells per well; compound acoustically transferred; CisBio IP-One kit
In short: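 HEK cells stably expressing human GPR40, plated 16 h beforehand, were exposed to compound in stimulation buffer for 60 min at 37 °C. IP1 accumulation was detected by HTRF (665/620 nm ratio) after 60 min with detection reagents and converted to IP1 concentration from a same-day standard curve.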

T1 sequence (O14842 whole entry): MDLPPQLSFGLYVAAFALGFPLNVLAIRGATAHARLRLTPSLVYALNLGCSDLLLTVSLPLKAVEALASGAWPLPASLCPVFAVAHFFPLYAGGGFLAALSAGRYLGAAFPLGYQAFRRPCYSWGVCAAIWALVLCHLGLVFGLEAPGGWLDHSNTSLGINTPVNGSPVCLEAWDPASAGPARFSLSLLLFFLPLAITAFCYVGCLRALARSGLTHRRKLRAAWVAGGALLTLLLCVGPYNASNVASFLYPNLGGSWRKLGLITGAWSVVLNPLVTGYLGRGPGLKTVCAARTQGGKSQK

| Compound | EC50 |
| --- | --- |
| COc1cc(-c2ccc(C3CCc4ccc([C@H](C5CC5)[C@H](C)C(=O)O)cc4O3)cc2CN2CCC3(CCCO3)C2)c(F)cn1 (stereo partly drawn) [Example 41] | 13 nM |
| COc1cc(-c2ccc(C3CCc4ccc([C@H](C5CC5)[C@H](C)C(=O)O)cc4O3)cc2CN2CCCCC2)c(F)cn1 (mixture of isomers) [Example 63] | 2.3 nM |
| COc1cc(-c2ccc(C3CCc4ccc([C@H](C5CC5)[C@H](C)C(=O)O)cc4O3)cc2CN2CC(C)(C#N)C2)c(F)cn1 (mixture of isomers) [Example 67] | 15 nM |
| COc1cc(-c2ccc(C3CCc4ccc([C@H](C5CC5)[C@H](C)C(=O)O)cc4O3)cc2CN2CCNCC2)c(F)cn1 (mixture of isomers) [Example 33] | 573 nM |
| COc1cc(-c2ccc([C@H]3CCc4ccc([C@H](C5CC5)[C@H](C)C(=O)O)cc4O3)cc2CN2CCC[C@H]2C)c(F)cn1 [Example 137] | 4.6 nM |
| CNCc1cc(C2CCc3ccc([C@H](C4CC4)[C@H](C)C(=O)O)cc3O2)ccc1-c1cc(OC)ncc1F (mixture of isomers) [Example 4] | 310 nM |
| CCOc1cc(-c2ccc(C3CCc4ccc([C@H](C5CC5)[C@H](C)C(=O)O)cc4O3)cc2CN2CCCC2)c(F)cn1 (mixture of isomers) [Example 74, (2S,3R)-3-cyclopropyl-3-(2-(4-(2-ethoxy-5-fluoropyridin-4-yl)-3-(pyrrolidin-1-ylmethyl)phenyl)chroman-7-yl)-2-methylpropanoic acid] | 9.3 nM |
| COc1cc(-c2ccc(C3CCc4ccc([C@H](C5CC5)[C@H](C)C(=O)O)cc4O3)cc2CN2CC[C@H](OC)C2)c(F)cn1 (stereo partly drawn) [Example 19] | 6.4 nM |
| COc1cc(-c2ccc(C3CCc4ccc([C@H](C5CC5)[C@H](C)C(=O)O)cc4O3)cc2CN2CCOC3(CC3)C2)c(F)cn1 (mixture of isomers) [Example 42] | 3.1 nM |
| COc1cc(-c2ccc(C3CCc4ccc([C@H](C5CC5)[C@H](C)C(=O)O)cc4O3)cc2CN2C3CCC2CC(OC)C3)c(F)cn1 (stereo partly drawn) [Example 37] | 4.7 nM |
| COc1cc(-c2ccc(C3CCc4ccc([C@H](C5CC5)[C@H](C)C(=O)O)cc4O3)c(CN3CCCC3)c2)ccn1 (mixture of isomers) [Example 112] | 5.6 nM |
| CCOc1cc(-c2ccc(C3CCc4ccc([C@H](C5CC5)[C@H](C)C(=O)O)cc4O3)cc2CN2CCCC2)c(Cl)cn1 (mixture of isomers) [Example 216] | 86 nM |
| COc1cc(-c2ccc([C@@H]3CCc4ccc([C@H](C5CC5)[C@H](C)C(=O)O)cc4O3)cc2CN2CCC2(C)C)c(F)cn1 [Example 157] | 4.2 nM |
| COc1cc(-c2ccc(C3CCc4ccc([C@H](C5CCC5)[C@H](C)C(=O)O)cc4O3)cc2CN2CCCC2)c(F)cn1 (single isomer, unassigned) [Example 93] | 2.9 nM |
| COC[C@H]1CCCN1Cc1cc([C@H]2CCc3ccc([C@H](C4CC4)[C@H](C)C(=O)O)cc3O2)ccc1-c1cc(OC)ncc1F [Example 163] | 3.3 nM |
| COc1cc(-c2ccc([C@H]3CCc4ccc([C@H](C5CC5)[C@H](C)C(=O)O)cc4O3)cc2CNCC(F)(F)F)c(F)cn1 [Example 149] | 2.5 nM |
| COc1cc(-c2ccc([C@@H]3CCc4ccc([C@H](C5CC5)[C@H](C)C(=O)O)cc4O3)cc2CN2C3CCC2CC3)c(F)cn1 [Example 162] | 5.4 nM |
| COc1cc(-c2ccc(C3CCc4ccc([C@H](C5CC5)[C@H](C)C(=O)O)cc4O3)cc2CN2CCCC2)c(C#N)cn1 (mixture of isomers) [Example 78, (2S,3R)-3-(2-(4-(5-cyano-2-methoxypyridin-4-yl)-3-(pyrrolidin-1-ylmethyl)phenyl)chroman-7-yl)-3-cyclopropyl-2-methylpropanoic acid] | 8 nM |
| COc1cc(-c2ccc(C3CCc4ccc([C@H](C5CC5)[C@H](C)C(=O)O)cc4O3)cc2CN2C3CCC2COC3)c(F)cn1 (stereo partly drawn) [Example 68] | 0.7 nM |
| COc1cc(-c2ccc(C3CCc4ccc([C@H](C5CC5)[C@H](C)C(=O)O)cc4O3)cc2CN(C)C)c(F)cn1 (single isomer, unassigned) [Example 1b] | 2.9 nM |

More lines, now with the values ahead:

| EC50 | Compound |
| --- | --- |
| 0.8 nM | COC[C@@H]1CCCN1Cc1cc([C@@H]2CCc3ccc([C@H](C4CC4)[C@H](C)C(=O)O)cc3O2)ccc1-c1cc(OC)ncc1F [Example 134, (2S, 3R)-3-cyclopropyl-3-((S)-2-(4-(5-fluoro-2-methoxypyridin-4-yl)-3-(((S)-2-(methoxymethyl)pyrrolidin-1-yl)methyl)phenyl)chroman-7-yl)-2-methylpropanoic acid] |
| 1.3 nM | COc1cc(-c2ccc([C@@H]3CCc4ccc([C@H](C5CC5)[C@H](C)C(=O)O)cc4O3)cc2CN2CCCC[C@@H]2C)c(F)cn1 [Example 154] |
| 2.1 nM | COC[C@@H]1CCCN1Cc1cc(C2CCc3ccc([C@H](C4CC4)[C@H](C)C(=O)O)cc3O2)ccc1-c1cc(OC)ncc1F (stereo partly drawn) [Example 36] |
| 1.1 nM | COc1cc(-c2ccc([C@@H]3CCc4ccc([C@H](C5CC5)[C@H](C)C(=O)O)cc4O3)cc2CN2CCCC[C@H]2C)c(F)cn1 [Example 153] |
| 0.7 nM | COc1cc(-c2ccc(C3CCc4ccc([C@H](C5CC5)[C@H](C)C(=O)O)cc4O3)cc2CN2CCOCC23CCC3)c(F)cn1 (mixture of isomers) [Example 71] |
| 1.6 nM | COC[C@H]1CCCN1Cc1cc([C@@H]2CCc3ccc([C@H](C4CC4)[C@H](C)C(=O)O)cc3O2)ccc1-c1cc(OC)ncc1F [Example 164] |
| 1.8 nM | COc1cc(-c2ccc(C3CCc4ccc([C@H](C5CCC5)[C@H](C)C(=O)O)cc4O3)cc2CN(C)C)c(F)cn1 (single isomer, unassigned) [Example 95] |
| 0.76 nM | COc1cc(-c2ccc(C3CCc4ccc([C@H](C5CC5)[C@H](C)C(=O)O)cc4O3)cc2CN(C)CC(F)(F)F)c(F)cn1 (single isomer, unassigned) [Example 21] |
| 0.18 nM | COc1cc(-c2ccc(C3CCc4ccc([C@H](C5CC5)[C@H](C)C(=O)O)cc4O3)cc2CN(C)C2CC2)c(F)cn1 (mixture of isomers) [Example 57] |
| 1.1 nM | COc1cc(-c2ccc([C@H]3CCc4ccc([C@H](C5CC5)[C@H](C)C(=O)O)cc4O3)cc2CN2CCCC(C)(C)C2)c(F)cn1 [Example 142] |
